Data: paper PMC12781162, “Human Protein Z as the Second Known Heme‐Binding Protein from the Endogenous Blood Coagulation Inhibitor System” (Chembiochem, 2025)
Where two headings read alike, the source gives them in different places.

Tests used:
thrombin = thrombin (Homo sapiens, UniProt P00734); assay: SPR binding of porphyrins to immobilized thrombin; set-up: human α‐thrombin (HCT‐0020); purchased CellSystems GmbH HCT-0020; conditions: heterogeneous ligand model
Protocol: SPR experiments were conducted on a Biacore 8K instrument (Cytiva) to investigate the interaction of PZ with heme, as established before.^[ [19] ^, [35] ^, [37] ^, [43] ^] In brief, PZ (10 µg mL^−1) was dissolved in 10 mM sodium acetate buffer (pH 3.5) and immobilized onto a CM5 sensor chip via standard amine coupling, resulting in a final immobilization level of 767 RU. Heme (stock solution in 30 mM NaOH) was further diluted in running buffer (10 mM HEPES, 150 mM NaCl, and 0.05% Tween 20, pH 7.4). The same was performed with zinc (II) protoporphyrin IX and protoporphyrin IX (Frontier Scientific). Binding kinetics were assessed by injecting seven increasing concentrations of heme (187.5–12,000 nM) in a single‐cycle kinetics format at 25 °C and a flow rate of 30 µL min^−1. Data analysis was performed by global fitting using Biacore Insight Evaluation Software, version 3.0.12.15655 (Cytiva).
Figure S7. Heme binds to thrombin. For SPR analysis, thrombin (10 µg/ml) was dissolved in 10 mM sodium acetate buffer (pH 6.0) and immobilized onto a CM5 sensor chip via standard amine coupling, resulting in a final immobilization level of 1826.1 RU. Binding kinetics were assessed by injecting six increasing concentrations of heme (187.5 – 6,000 nM) in a single-cycle kinetics format at 25°C and a flow rate of […]
transient nature of heme binding to thrombin. […]

[1] = Substrate control of the chromogenic assay without thrombin; assay type: biochemical; conditions: no thrombin; heme 1 – 1000 nM, PZ 10 nM; thrombin = 100 %
Protocol: Herein, an earlier established chromogenic thrombin amidolytic activity assay system was thus used, inspired by Hogg and Stenflo.^[ [19] ^, [28] ^] PZ (final concentration: 10 nM) was first incubated for 30 min with different heme concentrations (final concentrations: 1–1000 nM). Afterward, the heme–PZ mixture was incubated with thrombin for 10 min and the PZ–thrombin mixture (50 µL; final thrombin concentration: 15 nM) was transferred onto a 96‐well plate (Greiner Bio‐One GmbH). Finally, 5 µL of the substrate solution (H‐D‐Phe‐Pip‐Arg‐pNA x 2 HCl (S‐2238); final concentration: 273 µM) was added. Immediately, kinetic measurements at 405 nm were started, using an Infinite 200 Pro spectrophotometer. Heme only, thrombin only, and PZ‐heme only served as controls. For evaluation, the thrombin activity was determined as the change of absorbance per second and always normalized against the basal thrombin activity without PZ. Data were analyzed as the mean of triplicate and the IC50 was calculated by nonlinear regression (GraphPad Prism, version 10.5.0). […]
thrombinheme (0 nM)heme (1 nM) thrombin heme (3.16 nM)heme (10 nM)heme (31.6 nM)heme (100 nM)heme (316 nM)heme (1000 nM)PZ+heme (0 nM)PZ+heme (1 nM) PZ+heme (3.16 nM)PZ+heme (10 nM)PZ+heme (31.6 nM)PZ+heme (100 nM)PZ+heme (316 nM)PZ+heme (1000 nM)
Figure S5. […]

- Kd (thrombin; read-out: KD1 (porphyrin binding to thrombin)): 92.9 nM
- Kd (thrombin; read-out: KD2 (porphyrin binding to thrombin)): 709 nM
Substance: Hemin [heme]
- relative amidolytic activity toward substrate S-2238 [1]: ~ 0%
